# According to article PMC7293031 (Nucleic Acids Research, 2020):
# Legend:
# PvrA [1] = biological target: T1, PvrA (Pseudomonas aeruginosa, UniProt Q9HZP1); assay: ITC at […]°C; assay type: binding
# T1 sequence (Q9HZP1 1-212): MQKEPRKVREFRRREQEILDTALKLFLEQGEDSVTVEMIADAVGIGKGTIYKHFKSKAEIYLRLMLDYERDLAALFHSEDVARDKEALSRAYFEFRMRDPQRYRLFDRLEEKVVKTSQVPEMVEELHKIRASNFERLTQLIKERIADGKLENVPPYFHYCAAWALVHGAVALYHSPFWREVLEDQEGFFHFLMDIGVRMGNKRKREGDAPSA
# PvrA [2] = biological target: T2, PvrA (Pseudomonas aeruginosa, UniProt Q9HZP1, R136A); assay: ITC; assay type: binding
# T2 sequence (Q9HZP1 1-212 R136A): T1 sequence (Q9HZP1 1-212)
smiles,measurement,setting,value
CCCCCCCCCCCCCCCC(=O)SCCNC(=O)CCNC(=O)[C@H](O)C(C)(C)COP(=O)(O)OP(=O)(O)OC[C@H]1O[C@@H](n2cnc3c(N)ncnc32)[C@H](O)[C@@H]1OP(=O)(O)O [palmitoyl-coenzyme A],Kd,PvrA [1],31 µM
same,Kd,PvrA [2],262 µM
